US20230301972A1, “ANTI-FIBROTIC COMPOSITION AND RELATED METHODS” (Fred Hutchinson Cancer Center, priority 2020, published 2023)

Legend:
[1] = system: CCl4-induced fibrosis; assay: Carbon tetrachloride (CCl4)-induced liver fibrosis mouse model; assay type: in vivo
Experimental: FIGS. 11A and 11B. Male C57BL/6J mice between 6-8 week old were used in the study. Mice were treated with intraperitoneal injection of 0.5 μl carbon tetrachloride (CCl4) per gram body weight, dissolved in corn oil at a ratio of 1:3, twice a week (Tuesdays and Saturdays) for 5.5 weeks or corn oil control only. […] At the end of the study, livers were either snap frozen or fixed in 10% formalin and stained for H&E, Masson Trichrome (FIG. 11A) and Ki67 (FIG. 11B).
Total RNA was extracted from the snap frozen liver tissue in TRIzol™ Reagent by Omni Bead Ruptor homogenizer. 1 μg of total RNA was reverse transcribed into first-strand cDNA using an RT2 First Strand Kit (QIAGEN). The resultant cDNA was subjected to qPCR using indicated mouse primers to measure the changes in mRNA expression of indicated mouse genes (FIG. 11A and FIG. 11C).
FIG. 12A: Total protein was extracted from the snap frozen liver tissue in T-PER™ Tissue Protein Extraction Reagent by Omni Bead Ruptor homogenizer. Changes in the phosphorylation levels of indicated proteins were detected in the liver homogenates from the CCl4 in vivo studies by reverse-phase protein array.
FIG. 12B: pSTAT3 levels were detected in the fixed […] tissue by immunohistochemistry. Intensity of staining was quantified by HALO imaging software.

[2] = system: TGFBR1/2; assay: Kinome-profiling, TGFBR1/2; assay type: biochemical; conditions: at 500 nM
[3] = system: IPF-LL29 and IPF-LL97A cells; assay: qPCR of TGF-β-induced gene expression in IPF-LL29 and IPF-LL97A cells; assay type: cell-based, human; conditions: human lung fibroblast cell lines derived from IPF patients
Experimental: IPF-LL29, IPF-LL97A, and human lung fibroblast LL47 cell lines were purchased from ATCC. Mouse lung fibroblasts were isolated from the lungs of male C57BL/6J mice. Cells were grown at 37° C. under 5% CO2, 95% ambient atmosphere and maintained in Dulbecco's […] (DMEM) supplemented with 10% FBS (Sigma) and 1% Penn Strep.
FIGS. 2A and 2B. IPF-29 (FIG. 2A) or IPF-97A (FIG. 2B) cells were incubated with TGF-β alone at 5 ng/ml or TGF-β with indicated drugs for 48 hours and 5 days. Total cellular RNA was isolated using a RNeasy Mini Kit (QIAGEN). 1 μg of total RNA was reverse transcribed into first-strand cDNA using an RT2 First Strand Kit (QIAGEN). The resultant cDNA was subjected to qPCR using indicated human primers to measure the changes in mRNA expression of indicated human genes.

[4] = system: FGFR; assay: Kinome-profiling, FGFR; assay type: biochemical; conditions: at 500 nM
[5] = system: VEGFR; assay: Kinome-profiling, VEGFR; assay type: biochemical; conditions: at 500 nM
[6] = system: SMAD2 phosphorylation; assay: Immunoblot of TGF-β-mediated SMAD2 phosphorylation in LX2 cells; assay type: cell-based, human
[7] = cited from earlier work
[8] = system: LX2 cells; assay: qPCR of TGF-β-induced gene expression in LX2 cells; assay type: cell-based, human
Experimental: (§1) LX2 cells were obtained from Sigma Aldrich (Cat #SCC064). LX2 cells were grown at 37° C. under 5% CO2, 95% ambient atmosphere and maintained in Dulbecco's […] (DMEM) supplemented with 10% FBS (Sigma) and 1% Penn Strep.
FIGS. 10B and 10C: LX2 cells were incubated with TGF-β alone at 6.5 ng/ml or TGF-β with indicated drugs for 48 hours. Total cellular RNA was isolated using a RNeasy Mini Kit (QIAGEN). 1 μg of total RNA was reverse transcribed into first-strand cDNA using an RT2 First Strand Kit (QIAGEN). The resultant cDNA was subjected to qPCR using indicated human primers to measure the changes in mRNA expression of indicated human genes.

[9] = system: LX2 cells; assay: Live cell wound healing assay in LX2 cells; assay type: cell-based, human; conditions: 1 μM; TGFb 6.5 ng/ml; wound closure density at 50 hour
Experimental: as §1
FIG. 10A: LX2 cells were plated on 96-well plates (Essen Image Lock, Essen Instruments). […] Wound closure was monitored with Incucyte Live-Cell Imaging System and software (Essen Instruments) every 2-4 hours for 72 hours. The mean relative wound density of at least three biological replicates was calculated. The wound density correlates with the cell motility. Plotted is the wound closure density at 50 hour.

NC(=O)c1c(OCc2c(F)cc(Br)cc2F)nsc1NC(=O)NCCCCN1CCCC1 [OSI-632, 3-(4-bromo-2,6-difluoro-benzyloxy)-5-[3-(4-pyrrolidin-1-yl-butyl)-ureido]-isothiazole-4-carboxylic acid amide]
carbon tetrachloride (CCl4)-induced fibrosis ([1]; 80 mg/Kg thrice/week oral gavage, 3 weeks, mice, preliminary data): significant decrease | hepatocyte regeneration measured by Ki67 staining ([1]; livers treated with OSI-632): increased hepatocyte regeneration | CCl4-induced expression of HSC activation marker Acta2 and proliferation stimuli such as Tgfb2 ([1]; mouse liver, qPCR): reverse | reversal of CCl4-induced expression of Loxl1 ([1]; mouse liver, qPCR): 2 fold | reversal of CCl4-induced expression of Timp1 ([1]; mouse liver, qPCR): 5 fold | reversal of CCl4-induced expression of Timp2 ([1]; mouse liver, qPCR): 2 fold | reversal of CCl4-induced expression of Timp3 ([1]; mouse liver, qPCR): ~2 fold | mRNA expression of Col1a1 (qPCR) and protein level of collagen 1 (RPPA), liver ([1]; vs CCl4-only treated controls): significantly decreased | collagen deposition (Masson trichome staining), liver ([1]; vs CCl4 only treated mice): significant reduction | inhibition of TGFBR1/2 [2]: 91% | TGF-β-induced expression of myofibroblast activation markers αSMA, COL1A1, COL3A1 and FN1 ([3]; 48 hours and 5 days): decreased | expression of myofibroblast proliferation stimuli TGFB1, CTGF, IL-11, FGF2 and VEGFA ([3]; TGF-β 5 ng/ml): significant decrease | inhibition of FGFR [4]: 90% | inhibition of VEGFR [5]: ~75% | activation of TGF-β-mediated SMAD2 phosphorylation (immunoblot) [6]: blocks activation | bleeding and thrombosis toxicity ([7]; as sometimes observed with agents targeting VEGF/VEGFR): neither had toxicity issues of bleeding and thrombosis | adverse events in the liver ([7]; in vivo): nor does it cause any adverse events in the liver | maximal tolerable dose ([7]; phases I and II trials for various cancers): 200 mg/day | safety and tolerability ([7]; phases I and II trials, toxicities primarily low grade and readily managed): safe and well-tolerated | expression of integrins (ITGAV and ITGB6) and HSC proliferation stimuli TGFB2, PDGFA, PDGFB, CTGF, VEGFA, and CCL5 [8]: significant decrease | inhibition of expression of COL1A1 (FIG. 10C) [8]: 2 fold | inhibition of expression of COL1A2 (FIG. 10C) [8]: 3 fold | inhibition of expression of COL5A1 (FIG. 10C) [8]: 5 fold | decrease in TGF-β-induced expression of COL1A1 (FIG. 10B) ([8]; 48 hours): 2 fold | decrease in TGF-β-induced expression of αSMA (FIG. 10B) ([8]; 48 hours): 2 fold | TGF-β-induced motility of LX2 cells [9]: significantly decreased
